Laboratory results: patent publication US4200750A, “4-Substituted imidazo [1,2-a]quinoxalines” (Westwood Pharmaceuticals Inc., priority 1977, dated 1980)
Converted amounts (≈) assume the structure as drawn. One block for each compound: values may come before it.

Legend:
[1] = system: immunosuppressant activity; test: Immunosuppressant activity (general statement); format: in vivo; settings: result in words
[2] = system: T. rubrum; test: Agar dilution antifungal assay, Trichophyton rubrum; format: cell-based, Trichophyton rubrum (ATCC No. 10218 and 14001); settings: for MIC: Trichophyton rubrum, read-out: Parts Per Million Inhibitions, T. rubrum
Protocol: (§1) Various compounds of this invention display antifungal and anti-yeast activity.
(§2) In Table IX below are listed the antifungal activity of a number of compounds encompassed in the present invention. These were determined by the agar dilution method as described in Chapters 2 and 3 of Methods in Microbiology, Vol. 7B, edited by J. R. Norris and D. W. Ribbons, Academic Press, New York, 1972.

[3] = system: Rat Paw Edema; test: Rat paw edema assay, local administration; format: in vivo; settings: injected directly into paw, carrageenan
Protocol: The anti-inflammatory activity of representative compounds of this invention was determined by the rat paw edema assay both by local administration (Table XI below) and by oral dosing (Table XII below). For the oral dosing, the procedure of C. A. Winter, E. A. Risley and G. W. Nuss, Proc. Soc. Exp. Biol. Med. 111, 544 (1962) was employed with measurement taken four hours after the drug was administered. The local administration tests were carried out similarly except the irritant (carrageenan) and the test compound were injected simultaneously at time zero.
Tables XI and XII report the anti-inflammatory activity of the compounds tested as % difference in the edema or swelling as compared with the control. These Tables also give the response in many instances of more than one dose level of the same drug.

[4] = system: T. ajelloi; test: Agar dilution antifungal assay, Trichophyton ajelloi; format: cell-based
Protocol: as §1, §2

[5] = system: T. mentagrophytes; test: Agar dilution antifungal assay, Trichophyton mentagrophytes; format: cell-based, Trichophyton mentagrophytes (ATCC No. 8757 and 9129)
Protocol: as §1, §2

Structure (SMILES): c1ccc2c(c1)ncc1nccn12 [Compound 109, imidazo[1,2-a]quinoxaline]
immunosuppressant activity [1]: lacks immunosuppressant activity

MIC [2]: 16 µg/mL (≈ 71 µM)
Structure (SMILES): CCCCc1nc2ccccc2n2ccnc12 [Compound 113]

Structure (SMILES): CCCCCc1nc2ccccc2n2ccnc12 [Compound 114]
% Difference from Control (edema), local administration, 10 μg [3]: -30.0%

MIC ([4]; Arthroderma uncinatum, read-out: Parts Per Million Inhibitions, T. ajelloi): 16 µg/mL (≈ 56.9 µM) | MIC ([5]; Trichophyton mentagrophytes, read-out: Parts Per Million Inhibitions, T. mentagrophytes): 16 µg/mL (≈ 56.9 µM) | MIC [2]: 8 µg/mL (≈ 28.4 µM)
Structure (SMILES): CCCCCCCCc1nc2ccccc2n2ccnc12 [Compound 117]

Structure (SMILES): c1ccc(-c2nc3ccccc3n3ccnc23)cc1 [Compound 131, 4-phenylimidazo[1,2-a]quinoxaline]
immunosuppressant activity [1]: only minor activity

Structure (SMILES): Clc1cccc(Nc2nc3ccccc3n3ccnc23)c1 [Compound 179]
Parts Per Million Inhibitions, T. ajelloi [4]: 100 Parts Per Million | Parts Per Million Inhibitions, T. mentagrophytes [5]: 100 Parts Per Million | Parts Per Million Inhibitions, T. rubrum [2]: 100 Parts Per Million
